Experimental data from patent US7396837B2, “Antitumoral analogs of lamellarins” (Pharma Mar, S.A.U., priority 2002, dated 2008).

Tests used:
Type in all cases: cell-based
K-562 = experiment: SRB colorimetric cell growth inhibition assay, K-562; conditions: Homo sapiens, K562, K-562; for GI50: GI=growth inhibition, read-out: GI50 K-562; for CC50: cell killing (cytotoxic effect), read-out: LC50 K-562; for IC (TGI): total growth inhibition (cytostatic effect), read-out: TGI K-562
Procedure, shortened: (§1)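 Human tumour cells continuously exposed to compound in 96-well culture; growth and viability quantified colorimetrically by sulforhodamine B staining. Mean ± SD from triplicate wells; GI (growth inhibition), TGI (total growth inhibition, cytostatic) and LC (cell killing, cytotoxic) parameters derived.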

A-549 = experiment: SRB colorimetric cell growth inhibition assay, A-549; conditions: Homo sapiens, A549, A-549; for GI50: GI=growth inhibition, read-out: GI50 A-549; for CC50: cell killing (cytotoxic effect), read-out: LC50 A-549; for IC (TGI): total growth inhibition (cytostatic effect), read-out: TGI A-549
Procedure, shortened: as §1

SK-MEL-28 = experiment: SRB colorimetric cell growth inhibition assay, SK-MEL-28; conditions: Homo sapiens, SK-MEL-28, MEL-28; for GI50: GI=growth inhibition, read-out: GI50 MEL-28; for CC50: LC=cell killing (cytotoxic effect), read-out: LC50 MEL-28; for IC (TGI): TGI=total growth inhibition (cytostatic effect), read-out: TGI MEL-28
Procedure, shortened: as §1

HT-29 = experiment: SRB colorimetric cell growth inhibition assay, HT-29; conditions: Homo sapiens, HT-29, HT-29; for GI50: GI=growth inhibition, read-out: GI50 HT-29; for CC50: cell killing (cytotoxic effect), read-out: LC50 HT-29; for IC (TGI): total growth inhibition (cytostatic effect), read-out: TGI HT-29
Procedure, shortened: as §1

LoVo = experiment: SRB colorimetric cell growth inhibition assay, LoVo; conditions: Homo sapiens, LoVo; for GI50: GI=growth inhibition, read-out: GI50 LOVO; for CC50: cell killing (cytotoxic effect), read-out: LC50 LOVO; for IC (TGI): total growth inhibition (cytostatic effect), read-out: TGI LOVO
Procedure, shortened: as §1

LoVo-Dox = experiment: SRB colorimetric cell growth inhibition assay, LoVo-Dox (MDR); conditions: Homo sapiens, LOVO-DOX; for GI50: GI=growth inhibition, read-out: GI50 LOVO-DOX; for CC50: cell killing (cytotoxic effect), read-out: LC50 LOVO-DOX; for IC (TGI): total growth inhibition (cytostatic effect), read-out: TGI LOVO-DOX
Procedure, shortened: as §1

DU-145 = experiment: SRB colorimetric cell growth inhibition assay, DU-145; conditions: Homo sapiens, DU-145, DU-145; for GI50: GI=growth inhibition, read-out: GI50 DU-145; for CC50: LC=cell killing (cytotoxic effect), read-out: LC50 DU-145; for IC (TGI): TGI=total growth inhibition (cytostatic effect), read-out: TGI DU-145
Procedure, shortened: as §1

LNCaP = experiment: SRB colorimetric cell growth inhibition assay, LNCaP; conditions: Homo sapiens, LNCaP, LN-caP; for GI50: GI=growth inhibition, read-out: GI50 LN-caP; for CC50: LC=cell killing (cytotoxic effect), read-out: LC50 LN-caP; for IC (TGI): TGI=total growth inhibition (cytostatic effect), read-out: TGI LN-caP
Procedure, shortened: as §1

SK-BR-3 = experiment: SRB colorimetric cell growth inhibition assay, SK-BR-3; conditions: Homo sapiens, SK-BR-3, SK-BR-3; for GI50: GI=growth inhibition, read-out: GI50 SK-BR-3; for CC50: LC=cell killing (cytotoxic effect), read-out: LC50 SK-BR-3; for IC (TGI): TGI=total growth inhibition (cytostatic effect), read-out: TGI SK-BR-3
Procedure, shortened: as §1

IGROV = experiment: SRB colorimetric cell growth inhibition assay, IGROV; conditions: Homo sapiens, IGROV; for GI50: GI=growth inhibition, read-out: GI50 IGROV; for CC50: LC=cell killing (cytotoxic effect), read-out: LC50 IGROV; for IC (TGI): TGI=total growth inhibition (cytostatic effect), read-out: TGI IGROV
Procedure, shortened: as §1

IGROV-ET = experiment: SRB colorimetric cell growth inhibition assay, IGROV-ET (ET-743 resistant); conditions: Homo sapiens, IGROV-ET; for GI50: GI=growth inhibition, read-out: GI50 IGROV-ET; for CC50: LC=cell killing (cytotoxic effect), read-out: LC50 IGROV-ET; for IC (TGI): TGI=total growth inhibition (cytostatic effect), read-out: TGI IGROV-ET
Procedure, shortened: as §1

PANC-1 = experiment: SRB colorimetric cell growth inhibition assay, PANC-1; conditions: Homo sapiens, PANC-1, PANC-1; for GI50: GI=growth inhibition, read-out: GI50 PANC-1; for CC50: cell killing (cytotoxic effect), read-out: LC50 PANC-1; for IC (TGI): total growth inhibition (cytostatic effect), read-out: TGI PANC-1
Procedure, shortened: as §1

SKOV-3 = experiment: SRB colorimetric cell growth inhibition assay, SKOV-3; conditions: Homo sapiens; for GI50: SK-OV-3, SKOV-3, GI=growth inhibition, read-out: GI50 SKOV-3; for CC50 / IC (TGI): SK-OV-3, SKOV-3; for CC50: LC=cell killing (cytotoxic effect), read-out: LC50 SKOV-3; for IC (TGI): TGI=total growth inhibition (cytostatic effect), read-out: TGI SKOV-3
Procedure, shortened: (§2)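 SRB colorimetric readout of cell growth/viability in 96-well format. Means ± SD from triplicate wells; GI (growth inhibition), TGI (total growth inhibition, cytostatic) and LC (cell killing, cytotoxic) parameters derived.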

[1] = SRB colorimetric cell growth inhibition assay, H-MEC-1; conditions: human, H-MEC-1 cells, H-MEC-1; LC=cell killing (cytotoxic effect); read-out: LC50 H-MEC-1
Procedure, shortened: as §2

H-MEC-1 = experiment: as above; conditions: Homo sapiens, HMEC-1, H-MEC-1; for GI50: GI=growth inhibition; for IC (TGI): TGI=total growth inhibition (cytostatic effect), read-out: TGI H-MEC-1
Procedure, shortened: as §2

COc1cc(-c2c3n(c4c(=O)oc5cc(OC(=O)[C@@H](N)Cc6ccccc6)c(OC)cc5c24)CCc2cc(OC(=O)[C@@H](N)Cc4ccccc4)c(OC)cc2-3)ccc1OC(=O)[C@@H](N)Cc1ccccc1 [Compound 115]
GI50 (K-562): 536 nM | CC50 (K-562): 7780 nM | IC (TGI) (K-562): 2470 nM | GI50 (A-549): 1650 nM | CC50 (A-549): 5870 nM | IC (TGI) (A-549): 3110 nM | GI50 (SK-MEL-28): 1450 nM | CC50 (SK-MEL-28): 4830 nM | IC (TGI) (SK-MEL-28): 2650 nM | GI50 (HT-29): 2920 nM | CC50 (HT-29): 7780 nM | IC (TGI) (HT-29): 6460 nM | GI50 (LoVo): 703 nM | CC50 (LoVo): 4410 nM | IC (TGI) (LoVo): 1820 nM | GI50 (LoVo-Dox): 1760 nM | CC50 (LoVo-Dox): 7780 nM | IC (TGI) (LoVo-Dox): 4780 nM | GI50 (DU-145): 1630 nM | CC50 (DU-145): 7780 nM | IC (TGI) (DU-145): 4290 nM | GI50 (LNCaP): 670 nM | CC50 (LNCaP): 3870 nM | IC (TGI) (LNCaP): 1670 nM | GI50 (SK-BR-3): 1870 nM | CC50 (SK-BR-3): 7530 nM | IC (TGI) (SK-BR-3): 3750 nM | GI50 (IGROV): 1070 nM | CC50 (IGROV): 6260 nM | IC (TGI) (IGROV): 2580 nM | GI50 (IGROV-ET): 1700 nM | CC50 (IGROV-ET): 7780 nM | IC (TGI) (IGROV-ET): 5380 nM | GI50 (PANC-1): 2470 nM | CC50 (PANC-1): 7780 nM | IC (TGI) (PANC-1): 7780 nM | GI50 (SKOV-3): 1100 nM | CC50 (SKOV-3): 5130 nM | IC (TGI) (SKOV-3): 2380 nM | CC50 [1]: 2960 nM | GI50 (H-MEC-1): 213 nM | IC (TGI) (H-MEC-1): 452 nM

COc1cc(-c2c3n(c4c(=O)oc5cc(OC(=O)[C@@H]6CCCN6)c(OC)cc5c24)CCc2c-3cc(OC)c(OC)c2OC(=O)[C@@H]2CCCN2)ccc1OC(=O)[C@@H]1CCCN1 [Compound 118]
GI50 (K-562): 1170 nM | CC50 (K-562): 6570 nM | IC (TGI) (K-562): 2770 nM | GI50 (A-549): 1800 nM | CC50 (A-549): 6990 nM | IC (TGI) (A-549): 3550 nM | GI50 (SK-MEL-28): 1650 nM | CC50 (SK-MEL-28): 5490 nM | IC (TGI) (SK-MEL-28): 3000 nM | GI50 (HT-29): 1920 nM | CC50 (HT-29): 6590 nM | IC (TGI) (HT-29): 3560 nM | GI50 (LoVo): 1350 nM | CC50 (LoVo): 5430 nM | IC (TGI) (LoVo): 2700 nM | GI50 (LoVo-Dox): 450 nM | CC50 (LoVo-Dox): 3860 nM | IC (TGI) (LoVo-Dox): 1300 nM | GI50 (DU-145): 1600 nM | CC50 (DU-145): 5640 nM | IC (TGI) (DU-145): 3000 nM | GI50 (LNCaP): 987 nM | CC50 (LNCaP): 4760 nM | IC (TGI) (LNCaP): 2160 nM | GI50 (SK-BR-3): 639 nM | CC50 (SK-BR-3): 6250 nM | IC (TGI) (SK-BR-3): 2040 nM | GI50 (IGROV): 970 nM | CC50 (IGROV): 5470 nM | IC (TGI) (IGROV): 2300 nM | GI50 (IGROV-ET): 876 nM | CC50 (IGROV-ET): 6170 nM | IC (TGI) (IGROV-ET): 2330 nM | GI50 (PANC-1): 1080 nM | CC50 (PANC-1): 5350 nM | IC (TGI) (PANC-1): 2400 nM | GI50 (SKOV-3): 2020 nM | CC50 (SKOV-3): 8220 nM | IC (TGI) (SKOV-3): 4080 nM | CC50 [1]: 6450 nM | GI50 (H-MEC-1): 1450 nM | IC (TGI) (H-MEC-1): 3060 nM
